Measurements from US7196190B2, “Methods and compositions for screening for angiogenesis modulating compounds” (Xenogen Corporation, priority 1999, dated 2007).

Tested on: VEGFR-2 promoter
Test: In vivo bioluminescence imaging of female VEGFR2 transgenic mouse during estrus
Settings: subcutaneous 30mg/kg/day for 16 days, female VEGFR2 transgenic F1 mouse (founder KA); before treatment signal high for a maximum of 3–5 days
Source text: Two female VEGFR2 transgenic F1 mice from founder KA (See Example 7 above) were subjected to in vivo imaging of bioluminescence both dorsally and ventrally over a 16 day period according to the methods described in U.S. Pat. No. 5,650,135 to Contag et al. The results are presented graphically in FIGS. 18A–18D (FIGS. 18A and 18B, mouse 1 and 2 dorsal views, respectively, and FIGS. 18C and 18D, mouse 1 and 2 ventral views, respectively). […] In general, higher levels of luminescence were detectable ventrally as compared to dorsally. The signals appeared to be localized in the ovary (dorsal view) and uterus (ventral view). Both ovaries were clearly visible in most of the dorsal views. The uterus, connecting tubes and ovaries were visible in some of the ventral views.
The effect of the known estrogen antagonist ICI 182 780 (Tocris Cookson Ltd. Bristol, UK) on gene expression mediated by the VEGFR-2 promoter was investigated using the methods described in the preceding example.
A mature female VEGFR2 transgenic F1 mouse from founder KA (See Example 7 above) was imaged daily for 16 days according to the methods described in U.S. Pat. No. 5,650,135 to Contag et al. The bioluminescence signal remained high for a maximum of from 3–5 days, dropping back to a basal level for the interim periods. […]

C[C@]12CC[C@@H]3c4ccc(O)cc4C[C@@H](CCCCCCCCC[S+]([O-])CCCC(F)(F)C(F)(F)F)[C@H]3[C@@H]1CC[C@@H]2O (stereo partly shown) [ICI 182 780]
time the uterine bioluminescence signal remained high before dropping back to basal level: 9 days
